Source: US20030130177A1, “Use of amylin agonists to modulate triglycerides” (priority 2002, published 2003)

Columns and labels:
[1] = test system: patients with type-1 diabetes; conditions: mealtime s.c. injections in addition to mealtime insulin, cited from earlier work
[2] = test system: subjects with type 2 diabetes using insulin; test: Single-dose crossover study of pramlintide injection timing relative to a standardized breakfast, type 2 diabetes using insulin (Example 2); assay type: in vivo, human; conditions: type 2 patients treated with lispro insulin, pramlintide 120 μg SC, -15 to +30 min relative to meal
Text: (§1) In this example, a randomized, single-blind, placebo-controlled, five-way crossover study is designed to examine the effect of the timing of pramlintide injection relative to meal ingestion on postprandial plasma glucose profiles and triglycerides in subjects with type 1 diabetes and subjects with type 2 diabetes using insulin. Three study groups are defined by diabetes type and mealtime insulin used in their treatment regimen. On 5 study days, subjects receive a single dose of one of five treatments (A, B, C, D, or E) in random order:
(§2) Each treatment (pramlintide or placebo) is administered subcutaneously (SC) within specified times relative to a standardized breakfast after an overnight fast. Subjects are randomly assigned to one of four treatment sequences according to a randomization schedule generated for each study group.
Subjects with type 1 diabetes received pramlintide 60 μg or placebo (equivalent volume). Subjects with type 2 diabetes using insulin receive pramlintide 120 μg or placebo (equivalent volume). Subjects maintain their usual insulin regimen during the study; if necessary, insulin dose adjustments are made in consultation with study personnel to facilitate achievement of fasting fingerstick glucose values in the range of ≧80 mg/dL and ≦250 mg/dL while avoiding hypoglycemia. […]

[3] = test system: patients with type-1 diabetes; test: Standardized mixed meal test after 4 weeks pramlintide TID added to CSII (Example 1); assay type: in vivo, human
Text: This Study Assesses the Effect of the Amylin Agonist Pramlintide on Post-Prandial Plasma Glucose and Triglyceride Excursions in Patients with Type-1 Diabetes Intensively Treated with Continuous Subcutaneous Insulin Infusion (CSII).
All 23 patients in this study are ≧16 years of age, have type-I diabetes for ≧1 year and have been intensively treated (CSII, basal/bolus regimen) for at least 6 months. Patients are using either lispro (n=21) or regular (n=2) insulin, have not changed their daily insulin dose by more than ±10% for 2 months prior to the study, and have been free from severe hypo- and hyperglycemic symptoms for at least 4 weeks prior to the study. Exclusion criteria include a clinically significant history or presence of heart disease, uncontrolled hypertension (blood pressure ≧160/90 mm Hg), gastrointestinal, hepatic, renal, or central nervous system disorders, acute illness, a history of drug or alcohol abuse, or treatment with drugs known to affect gastrointestinal motility or glucose metabolism.
The study consists of 3 time periods (baseline, 4 weeks on-therapy, 2 weeks off-therapy). At the end of each time period (weeks 0, 4, 6), patients are evaluated at the clinical research center (CRC). Each evaluation includes a standardized meal test.
The first evaluation (baseline) is conducted when patients are solely treated with their usual CSII regimen. After the baseline evaluation, patients are randomized to self-administer either placebo (n=6) or pramlintide (n=17) TID with major meals, in addition to their existing CSII therapy, for 4 weeks. The placebo group is included to provide data that could be used to determine adequate power analyses when planning future studies and not for the purpose of placebo comparisons. […]
On each of the 3 CRC visits, patients undergo a standardized mixed meal test the morning after an overnight fast. […] Blood samples are processed in accordance with standard clinical practice using a reference lab and commercially available products (e.g., quantitative enzymatic in vitro assay for Triglycerides GPO-PAP, Roche Diagnostics). […]

[4] = test system: subjects with type 1 diabetes; test: Single-dose crossover study of pramlintide injection timing relative to a standardized breakfast, type 1 diabetes (Example 2); assay type: in vivo, human; conditions: pramlintide 60 μg SC, -15 to +30 min relative to meal
Text: as §1, §2
Subjects with type 1 diabetes received pramlintide 60 μg or placebo (equivalent volume). Subjects with type 2 diabetes using insulin receive pramlintide 120 μg or placebo (equivalent volume). Subjects maintain their usual insulin regimen during the study; if necessary, insulin dose adjustments are made in consultation with study personnel to facilitate achievement of fasting fingerstick glucose values in the range of ≧80 mg/dL and ≦250 mg/dL while avoiding hypoglycemia. The timing of the short-acting insulin dose relative to the standardized breakfast is based on recommendations in the respective package inserts for the insulin (0 min for insulin lispro and −30 min for regular insulin).
The study population consists of three study groups, defined by diabetes type and type of mealtime insulin used in their treatment regimen. Study Group 1: Subjects with type 1 diabetes using insulin lispro. Study Group 2: Subjects with type 1 diabetes using regular insulin. Study Group 3: Subjects with type 2 diabetes using insulin lispro. Fifty-nine subjects (21 type 1 subjects using insulin lispro; 19 type 1 subjects using regular insulin; and 19 type 2 subjects using insulin lispro) are enrolled in this study.

## CC[C@H](C)[C@H](NC(=O)[C@@H]1CCCN1C(=O)CNC(=O)[C@H](Cc1ccccc1)NC(=O)[C@H](CC(N)=O)NC(=O)[C@H](CC(N)=O)NC(=O)[C@H](CO)NC(=O)[C@H](CO)NC(=O)[C@H](Cc1c[nH]cn1)NC(=O)[C@@H](NC(=O)[C@H](CC(C)C)NC(=O)[C@H](Cc1ccccc1)NC(=O)[C@H](CC(N)=O)NC(=O)[C@H](C)NC(=O)[C@H](CC(C)C)NC(=O)[C@H](CCCNC(=N)N)NC(=O)[C@H](CCC(N)=O)NC(=O)[C@@H](NC(=O)[C@H](C)NC(=O)[C@@H]1CSSC[C@H](NC(=O)[C@@H](N)CCCCN)C(=O)N[C@@H](CC(N)=O)C(=O)N[C@@H]([C@@H](C)O)C(=O)N[C@@H](C)C(=O)N[C@@H]([C@@H](C)O)C(=O)N1)[C@@H](C)O)C(C)C)C(=O)N[C@@H](CC(C)C)C(=O)N1CCC[C@H]1C(=O)N1CCC[C@H]1C(=O)N[C@H](C(=O)N[C@@H](CC(N)=O)C(=O)N[C@H](C(=O)NCC(=O)N[C@@H](CO)C(=O)N[C@@H](CC(N)=O)C(=O)N[C@H](C(=O)N[C@@H](Cc1ccc(O)cc1)C(N)=O)[C@@H](C)O)C(C)C)[C@@H](C)O [pramlintide, ^25, 28, 29Pro-h-amylin]
[1]; Kong et al. 1998
  rate of gastric emptying: slows
[1]; Nyholm et al. 1999, Fineman et al. 2002
  mealtime glucagon secretion: suppresses
[1]; Nyholm et al. 1999, Thompson et al. 1997
  post-prandial glucose excursions: improves
[2]
  postprandial glucose excursions: markedly improves
[2]; FIG. 4
  postprandial triglyceride concentrations: markedly improves
[3]; end of 4-week pramlintide treatment period, s.c. 15 min prior to meal, plus CSII, baseline period 65.7±87.6, p<0.05
  post-prandial triglyceride excursions, mean incremental AUC: 16.7 ± 56.8 mg·min/dL
[3]; pramlintide added to insulin, type-1 diabetic patients
  post-prandial glucose response to a mixed meal: reduces
[3]; week 6, 2 weeks after return to pre-treatment therapy (CSII only), off-therapy
  post-prandial triglyceride excursions, mean incremental AUC: 56.2 ± 87.3 mg·min/dL
[4]; type 1 patients treated with lispro insulin
  postprandial glucose excursions: markedly improves
[4]; type 1 patients treated with lispro insulin, FIG. 2
  postprandial triglyceride concentrations: markedly improves
[4]; type 1 patients treated with regular insulin
  postprandial glucose excursions: markedly improves
[4]; type 1 patients treated with regular insulin, FIG. 3
  postprandial triglyceride concentrations: markedly improves
